Results: patent publication US20060063736A1, “Compositions and methods for inhibiting mucin-type O-linked glycosylation” (priority 2004, published 2006)

Legend:
[1] = target: T1, rppGalNAcT-5 (Rattus norvegicus, UniProt O88422); experiment: Radiolabel capture assay, rppGalNAcT-5; format: biochemical; settings: α-FLAG purified enzyme
T1 construct: plasmids encoding truncated secreted ppGalNAcTs-1 to −5, -7, -10 and -11; FLAG; made in house; host or cells: COS-7
T1 sequence (O88422 36-930 limits assumed): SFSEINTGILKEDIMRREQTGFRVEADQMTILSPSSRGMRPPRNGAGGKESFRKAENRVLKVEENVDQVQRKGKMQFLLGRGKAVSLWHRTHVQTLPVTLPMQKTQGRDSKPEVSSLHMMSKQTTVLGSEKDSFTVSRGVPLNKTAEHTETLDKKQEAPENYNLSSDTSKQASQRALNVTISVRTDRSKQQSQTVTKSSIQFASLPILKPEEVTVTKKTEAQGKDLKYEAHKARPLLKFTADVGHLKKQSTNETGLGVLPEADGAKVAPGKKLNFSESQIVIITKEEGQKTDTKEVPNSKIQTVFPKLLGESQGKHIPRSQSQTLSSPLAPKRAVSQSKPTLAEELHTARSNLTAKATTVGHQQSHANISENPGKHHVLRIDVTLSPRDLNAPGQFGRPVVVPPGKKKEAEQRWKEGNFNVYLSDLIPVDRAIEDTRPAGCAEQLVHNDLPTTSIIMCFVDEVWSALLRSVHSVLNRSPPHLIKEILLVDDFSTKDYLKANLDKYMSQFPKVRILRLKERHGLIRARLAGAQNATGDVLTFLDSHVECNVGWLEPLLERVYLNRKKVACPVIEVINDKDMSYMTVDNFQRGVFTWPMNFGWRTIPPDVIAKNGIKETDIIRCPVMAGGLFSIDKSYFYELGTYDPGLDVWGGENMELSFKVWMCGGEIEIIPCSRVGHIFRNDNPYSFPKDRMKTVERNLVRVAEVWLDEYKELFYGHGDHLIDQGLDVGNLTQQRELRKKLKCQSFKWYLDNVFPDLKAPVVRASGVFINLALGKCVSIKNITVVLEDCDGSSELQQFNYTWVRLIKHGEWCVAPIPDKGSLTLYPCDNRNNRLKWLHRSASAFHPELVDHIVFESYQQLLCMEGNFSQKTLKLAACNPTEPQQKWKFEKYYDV
Procedure: Radiolabel capture assays using ^14C-labeled UDP-GalNAc were performed as previously described with various concentrations of 1-68A or 2-68A in 2% DMSO. Ten Hagen et al. (2001) J. Biol. Chem. 276:17395-17404.
Table 1. IC50 values for 1-68A and 2-68A with ppGalNAcTs-1 to −5, -7, -10, -11, β1-4GalT and α1-3GalT. The requirement of glycopeptides as substrates for ppGalNAcT-7 and -10 precluded the use of the ELLA, as both the substrate and product bind HPA-HRP. Thus, the radiolabel capture assay was employed to measure the IC50 values of 1-68A and 2-68A with ppGalNAcT-7 and -10 using MUC5AC (GTTPSPVPTTSTTSAP; SEQ ID NO:15) glycopeptide, previously shown to be substrate for both enzymes. Ten Hagen et al. (1999) J. Biol. Chem. 274:27867-27874; and Ten Hagen et al. (2001) J. Biol. Chem. 276:17395-17404. IC50 values of 1-68A and 2-68A with ppGalNAcT-5 were performed with α-FLAG purified enzyme and radiolabel capture assay, due to low activity and stability of the crude enzyme. m=murine, r=rattus.

[2] = target: T2, α1-3galactosyltransferase (α1-3GalT) (Sus scrofa, UniProt P50127); experiment: Continuous assay for α1-3GalT activity; format: biochemical, porcine; settings: for inhibitory activity against α1-3GalT: highest concentration tested (500 μM)
T2 construct: purchased Calbiochem
T2 sequence (P50127 whole entry): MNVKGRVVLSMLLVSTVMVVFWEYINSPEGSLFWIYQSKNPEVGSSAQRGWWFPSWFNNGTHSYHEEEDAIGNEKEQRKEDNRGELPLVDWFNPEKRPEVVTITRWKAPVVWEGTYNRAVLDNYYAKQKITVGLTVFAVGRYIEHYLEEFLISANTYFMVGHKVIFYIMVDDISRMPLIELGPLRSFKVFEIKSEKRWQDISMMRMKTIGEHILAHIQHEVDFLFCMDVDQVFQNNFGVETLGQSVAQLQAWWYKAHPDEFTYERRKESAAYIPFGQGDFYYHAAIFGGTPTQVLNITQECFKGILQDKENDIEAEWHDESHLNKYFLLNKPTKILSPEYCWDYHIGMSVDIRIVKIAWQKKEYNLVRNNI
Procedure: The enzymatic reactions contained the following components in a final volume of 100 μL: 20 mM MnCl2, 100 mM sodium cacodylate, pH 6.5, 5 U of pyruvate kinase, 5 U of lactate dehydrogenase, 2 mM PEP, 0.2 mM NADH with 0.4 mU of β1-4GalT, 1 mM βOMeGlcNAc, 25 μM UDP-Gal or 1.0 mU of α1-3GalT, 1 mM LacNAc, 100 μM UDP-Gal and various concentrations of 1-68A or 2-68A in 2.5% DMSO. The reaction mixtures were incubated at 37° C. for 10 min before the reaction was initiated by the addition of UDP-Gal. The change in absorbance was monitored over 20 min at 340 nm.
To determine the selectivity of the compounds among the broader family of UDP-sugar utilizing enzymes, 1-68A and 2-68A were tested against bovine β1-4galactosyltransferase (β1-4GalT) and porcine α1-3galactosyltransferase (α1-3GalT), using a previously reported continuous colorimetric assay. Fitzgerald et al. (1970) Anal. Biochem. 36:43-61. Neither compound was active against β1-4GalT or α1-3GalT at the highest concentration tested (500 μM) (Entries 9 and 10, Table 1).

[3] = target: T3, UDP-GlcNAc/GalNAc C4-epimerase (Homo sapiens, UniProt Q14376); settings: Winans and Bertozzi (2002); cited from earlier work
T3 sequence (Q14376 1-348): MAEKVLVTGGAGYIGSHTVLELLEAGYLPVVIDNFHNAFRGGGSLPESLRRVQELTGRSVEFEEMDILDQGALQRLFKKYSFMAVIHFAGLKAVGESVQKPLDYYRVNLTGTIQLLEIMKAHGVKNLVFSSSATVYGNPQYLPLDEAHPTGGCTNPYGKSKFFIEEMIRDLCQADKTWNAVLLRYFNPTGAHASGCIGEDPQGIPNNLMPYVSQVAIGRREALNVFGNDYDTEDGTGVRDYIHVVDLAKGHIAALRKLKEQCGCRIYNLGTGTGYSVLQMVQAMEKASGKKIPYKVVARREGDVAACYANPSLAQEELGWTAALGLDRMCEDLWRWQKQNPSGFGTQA

[4] = system: UDP-galactopyranose mutase; settings: Scherman et al. (2003); cited from earlier work

Row | Structure (SMILES) | IC50 [1] | IC50 [2] | inhibitory activity against α1-3GalT [2] | identified in library screen against UDP-GlcNAc/GalNAc C4-epimerase [3] | identified in library screen against UDP-galactopyranose mutase [4]
1 | O=c1ccn([C@@H]2O[C@H](CON=Cc3ccc(O)c(O)c3O)[C@@H](O)[C@H]2O)c(=O)[nH]1 [1-68A] | 20 ± 2 µM | > 500 µM | lack of inhibitory activity | not identified | not identified
2 | O=C(CON=Cc1ccc(O)c(O)c1O)NC[C@H]1O[C@@H](n2ccc(=O)[nH]c2=O)[C@H](O)[C@@H]1O [2-68A] | 26 ± 9 µM | > 500 µM | lack of inhibitory activity | not identified | not identified
